Measurements from the NIST ThermoML archive (doi:10.1016/j.jct.2016.03.036).
“And” between values parts separate entries of the source, which are not always exact repeats. Equal values may be shown once.

Experiment: xn = mol fraction of the nth substance listed
Conditions: Gas, Spherical resonator

[Ar] [argon] + O=C=O
Conditions	speed of sound
274.99 K, 4022.9 kPa, x2 = 0.501	263.92 m/s and 263.91 m/s
274.99 K, 4023.2 kPa, x2 = 0.501	263.86 m/s
274.99 K, 6072.9 kPa, x2 = 0.501	257.99 m/s and 257.96 m/s
274.99 K, 6073.3 kPa, x2 = 0.501	258.01 m/s
275 K, 2006.3 kPa, x2 = 0.501	270.61 m/s and 270.59 m/s
275 K, 2006.4 kPa, x2 = 0.501	270.44 m/s
275 K, 8215.3 kPa, x2 = 0.501	254.18 m/s and 254.17 m/s
275 K, 8216.3 kPa, x2 = 0.501	253.76 m/s
276.09 K, 501.14 kPa, x2 = 0.7498	264.91 m/s
276.09 K, 1998.9 kPa, x2 = 0.7498	255.17 m/s and 255.16 m/s
276.09 K, 1999 kPa, x2 = 0.7498	255.07 m/s
276.09 K, 4003.2 kPa, x2 = 0.7498	240.29 m/s
276.09 K, 4003.3 kPa, x2 = 0.7498	240.28 m/s
276.09 K, 4003.6 kPa, x2 = 0.7498	240.29 m/s
276.09 K, 4995.2 kPa, x2 = 0.7498	231.83 m/s and 231.82 m/s
276.09 K, 4995.7 kPa, x2 = 0.7498	232.3 m/s
276.09 K, 5295.4 kPa, x2 = 0.7498	229.02 m/s and 229.01 m/s
276.09 K, 5296 kPa, x2 = 0.7498	229.56 m/s
276.09 K, 5399.3 kPa, x2 = 0.7498	228 m/s
276.09 K, 5399.8 kPa, x2 = 0.7498	228.57 m/s
276.09 K, 5502.4 kPa, x2 = 0.7498	226.98 m/s
276.09 K, 5503 kPa, x2 = 0.7498	227.57 m/s
290.01 K, 485.29 kPa, x2 = 0.7498	271.44 m/s
290.01 K, 1978.9 kPa, x2 = 0.7498	263.38 m/s and 263.41 m/s
290.01 K, 1979 kPa, x2 = 0.7498	263.3 m/s
290.01 K, 4023.1 kPa, x2 = 0.7498	251.71 m/s and 251.65 m/s
290.01 K, 4023.4 kPa, x2 = 0.7498	251.64 m/s
290.01 K, 6011.9 kPa, x2 = 0.7498	239.66 m/s
290.01 K, 6012.1 kPa, x2 = 0.7498	239.67 m/s
290.01 K, 6012.7 kPa, x2 = 0.7498	240.25 m/s
290.01 K, 8057 kPa, x2 = 0.7498	227.35 m/s
290.01 K, 8057.4 kPa, x2 = 0.7498	227.74 m/s
290.02 K, 8057.1 kPa, x2 = 0.7498	227.32 m/s
299.85 K, 8170.1 kPa, x2 = 0.501	275.03 m/s
299.85 K, 8170.2 kPa, x2 = 0.501	275.04 m/s
299.85 K, 8170.7 kPa, x2 = 0.501	275.13 m/s
299.94 K, 1986.8 kPa, x2 = 0.501	283.88 m/s and 283.89 m/s
299.94 K, 1987 kPa, x2 = 0.501	283.79 m/s
299.94 K, 4020.8 kPa, x2 = 0.501	279.77 m/s
299.95 K, 494.36 kPa, x2 = 0.501	287.27 m/s
299.95 K, 4020.5 kPa, x2 = 0.501	279.84 m/s and 279.82 m/s
299.95 K, 6007.5 kPa, x2 = 0.501	276.82 m/s
299.95 K, 6007.9 kPa, x2 = 0.501	276.82 m/s
299.95 K, 7657.9 kPa, x2 = 0.501	275.37 m/s
299.95 K, 7658 kPa, x2 = 0.501	275.38 m/s
299.96 K, 7658.9 kPa, x2 = 0.501	275.44 m/s
310 K, 5999.6 kPa, x2 = 0.7498	258 m/s
310.01 K, 488.28 kPa, x2 = 0.7498	280.3 m/s
310.01 K, 1980.9 kPa, x2 = 0.7498	274.11 m/s and 274.12 m/s
310.01 K, 1981 kPa, x2 = 0.7498	274.01 m/s
310.01 K, 4023.9 kPa, x2 = 0.7498	265.68 m/s and 265.67 m/s
310.01 K, 4024.2 kPa, x2 = 0.7498	265.61 m/s
310.01 K, 5999.7 kPa, x2 = 0.7498	257.99 m/s
310.01 K, 6000.2 kPa, x2 = 0.7498	258.01 m/s
310.01 K, 8062.5 kPa, x2 = 0.7498	251.41 m/s
310.01 K, 8062.7 kPa, x2 = 0.7498	251.51 m/s
310.01 K, 8063.3 kPa, x2 = 0.7498	251.52 m/s
350.01 K, 487.4 kPa, x2 = 0.501	308.87 m/s
350.01 K, 500.81 kPa, x2 = 0.7498	296.88 m/s
350.01 K, 1987.2 kPa, x2 = 0.7498	293.21 m/s
350.01 K, 1987.3 kPa, x2 = 0.7498	293.13 m/s
350.01 K, 1987.4 kPa, x2 = 0.7498	293.08 m/s
350.01 K, 1989.8 kPa, x2 = 0.501	307.6 m/s and 307.57 m/s
350.01 K, 1990 kPa, x2 = 0.501	307.46 m/s
350.01 K, 4001.2 kPa, x2 = 0.501	306.39 m/s and 306.37 m/s
350.01 K, 4001.5 kPa, x2 = 0.501	306.3 m/s
350.01 K, 4010.3 kPa, x2 = 0.7498	288.58 m/s and 288.52 m/s
350.01 K, 4010.6 kPa, x2 = 0.7498	288.5 m/s
350.01 K, 6002.2 kPa, x2 = 0.501	305.92 m/s and 305.92 m/s
350.01 K, 6002.6 kPa, x2 = 0.501	305.94 m/s
350.01 K, 6017.8 kPa, x2 = 0.7498	284.82 m/s and 284.81 m/s
350.01 K, 6018.2 kPa, x2 = 0.7498	284.8 m/s
350.01 K, 7290.6 kPa, x2 = 0.501	306.26 m/s and 306.02 m/s
350.01 K, 7291.2 kPa, x2 = 0.501	306.19 m/s
350.01 K, 8200.3 kPa, x2 = 0.7498	282.09 m/s and 282.08 m/s
350.01 K, 8201 kPa, x2 = 0.7498	282.12 m/s
400.13 K, 501.93 kPa, x2 = 0.7498	316.14 m/s
400.13 K, 1988.1 kPa, x2 = 0.7498	314.38 m/s and 314.32 m/s
400.13 K, 1988.3 kPa, x2 = 0.7498	314.31 m/s
400.13 K, 4018.3 kPa, x2 = 0.7498	312.3 m/s and 312.25 m/s
400.13 K, 4018.6 kPa, x2 = 0.7498	312.17 m/s
400.13 K, 6013.1 kPa, x2 = 0.7498	310.98 m/s and 310.94 m/s
400.13 K, 6013.5 kPa, x2 = 0.7498	310.89 m/s
400.13 K, 7954.4 kPa, x2 = 0.7498	310.44 m/s
400.13 K, 7954.5 kPa, x2 = 0.7498	310.43 m/s
400.13 K, 7955.1 kPa, x2 = 0.7498	310.44 m/s
400.19 K, 2000.8 kPa, x2 = 0.501	328.69 m/s and 328.63 m/s
400.19 K, 2000.9 kPa, x2 = 0.501	328.52 m/s
400.2 K, 451.92 kPa, x2 = 0.501	328.79 m/s
400.2 K, 4008.7 kPa, x2 = 0.501	328.95 m/s and 329.02 m/s
400.2 K, 4009 kPa, x2 = 0.501	328.85 m/s
400.2 K, 5980.4 kPa, x2 = 0.501	329.82 m/s and 329.89 m/s
400.2 K, 5980.8 kPa, x2 = 0.501	329.73 m/s
400.2 K, 7411 kPa, x2 = 0.501	330.82 m/s
400.2 K, 7411.2 kPa, x2 = 0.501	330.79 m/s
400.2 K, 7411.7 kPa, x2 = 0.501	330.75 m/s
500.46 K, 1988.3 kPa, x2 = 0.501	365.88 m/s and 365.86 m/s
500.46 K, 1988.4 kPa, x2 = 0.501	365.73 m/s
500.46 K, 4007.9 kPa, x2 = 0.501	367.67 m/s and 367.61 m/s
500.46 K, 4008.1 kPa, x2 = 0.501	367.56 m/s
500.46 K, 6008.3 kPa, x2 = 0.501	369.75 m/s and 369.73 m/s
500.46 K, 6008.7 kPa, x2 = 0.501	369.69 m/s
500.46 K, 7264.4 kPa, x2 = 0.501	371.24 m/s and 371.28 m/s
500.46 K, 7264.8 kPa, x2 = 0.501	371.19 m/s
500.48 K, 501.81 kPa, x2 = 0.7498	351 m/s
500.48 K, 2003.9 kPa, x2 = 0.7498	351.19 m/s and 351.23 m/s
500.48 K, 2004 kPa, x2 = 0.7498	351.03 m/s
500.48 K, 4010 kPa, x2 = 0.7498	351.64 m/s and 351.63 m/s
500.48 K, 4010.3 kPa, x2 = 0.7498	351.5 m/s
500.48 K, 6000.8 kPa, x2 = 0.7498	352.54 m/s and 352.49 m/s
500.48 K, 6001.2 kPa, x2 = 0.7498	352.39 m/s
500.49 K, 8007.4 kPa, x2 = 0.7498	353.87 m/s
500.49 K, 8007.5 kPa, x2 = 0.7498	353.82 m/s
500.49 K, 8008 kPa, x2 = 0.7498	353.78 m/s
500.5 K, 476.59 kPa, x2 = 0.501	364.75 m/s
